Results published in PubChem BioAssay AID1963830 (Molecular Pharmacology Branch, DTP, NCI, 2024).

System: 922993-354-T-J3-PDC complex spheroid viability
Experiment: Anticancer human tumor 922993-354-T-J3-PDC patient-derived endometrial carcinoma cell line growth inhibition [POLQ]
Settings: for IC50: curve of first compound; for viability, T/C: stronger effect = lower value
Experimental: Multicellular complex tumor spheroid response to Polymerase (POL) inhibitors (novobiocin, ART-558, RP6685) in combination with a variety of drugs and investigational agents in selected tumor cell lines
The POL inhibitors (novobiocin, ART-558, and RP6685) were evaluated both individually and in combination with standard of care and investigational anticancer small molecules within a complex spheroid model of solid tumors. . Complex spheroids include a stromal component modeled by human endothelial cells (HUVEC) and fibroblasts modeled by human mesenchymal stem cells (MSCs). The concentration ranges selected for each drug and investigational agent were based upon clinically achievable concentrations if the clinical Cmax of the agent was known.
Compounds. The drugs and investigational agents: novobiocin (NSC847541), ART-558 (NSC835418), RP-6685 (NSC848927), peposertib (NSC802822), ceralasertib (NSC780249), elimusertib (NSC800525), camonsertib (NSC841442), AZD-1390 (NSC803789), olaparib (NSC753686), talazoparib (NSC767125), rucaparib (NSC756644), sotorasib (NSC818433), MRTX-1133 (NSC836407), SN-38 (NSC673596), topotecan (NSC609699), epotoside (NSC141540), doxorubicin (NSC123127), gemcitabine (NSC613327), 5-fluorouracil (NSC19893), paclitaxel (NSC125973), vemurafenib (NSC761431), MSA-2 (NSC828583), SN-011 (NSC837082), adavosertib (NSC754352), prexasertib (NSC758257), carboplatin (NSC241240) and oxaliplatin (NSC266046), were obtained from the National Cancer Institute (NCI) Developmental Therapeutics Program Chemical Repository (21). The FDA-approved anticancer drug set is available from the Developmental Therapeutics Program at https://dtp.cancer.gov/organization/dscb/obtaining/. […] The stock solutions were prepared in dimethyl sulfoxide (DMSO, Sigma-Aldrich, St. Louis, MO, cat. D2650), except for the platinum compounds which were prepared in saline (Quality Biological, Gaithersburg, MD, cat. 114-055-101), at 800-fold the tested concentration and stored at -70 degrees C prior to their use. All drugs and investigational agents were tested over a range starting from a high concentration at or near the clinical Cmax and decreasing in half-log increments. If the clinical Cmax for an agent had not been determined, the highest concentration tested was 10 microM, except for SN-38, which was tested at a high concentration of 1 microM.
Cell Culture. All cells were maintained in an incubator at 37 degrees C and 5% CO2 with 95% humidity. The PDC lines were cultured according to standard operating procedures established by the NCI PDMR (https://pdmr.cancer.gov). Table 3 of the manuscript, lists the cell lines along with the number of the three cell types plated to form the mct-spheroids and media for tumor cell growth. After thawing, all PDC lines, except 997537-175-T-J1-PDC and 415267-285-R-J2-PDC, were cultured in Matrigel-coated flasks prepared with a working solution of 1X Ham's F-12 nutrient mix, without supplementation (Thermo Fisher Scientific, cat. 11765054), 100 U/mL penicillin-streptomycin (Thermo Fisher Scientific, cat. 15140122), and 2.5% Matrigel (Corning Inc., Corning, NY, cat. 354248) for the first three passages. The two PDC lines 997537-175-T-J1-PDC and 415267-285-R-J2-PDC were cultured on uncoated flasks. The 857933-349-R-J2-PDC line was cultured in 6C/Colon 1B media containing advanced DMEM/F-12 (Thermo Fisher Scientific, cat. 12634028), 10 mM HEPES (Thermo Fisher Scientific, cat. 15630080), 1X GlutaMAX supplement (Thermo Fisher Scientific, cat. 35050061), 0.1 mg/mL primocin (InvivoGen, San Diego, CA, cat. ant-pm-2), 10% defined fetal bovine serum, heat inactivated (HyClone Laboratories Inc., Logan, UT, cat. SH30070.03HI), 50% L-WRN conditioned media (ATCC, cat. CRL-3276), 1.25 mM N-Acetyl-L-cysteine (Sigma-Aldrich, cat. A9165), 10 mM nicotinamide (Sigma-Aldrich, cat. N0636), 1X B-27 supplement (Thermo Fisher Scientific, cat. 17504044), 1X N-2 supplement (Thermo Fisher Scientific, cat. […]

[1] = second compound 0.0316 µM, first compound 0.0316 µM
[2] = second compound 0.0316 µM, first compound 0.1 µM
[3] = second compound 0.0316 µM, first compound 0.316 µM
[4] = second compound 0.0316 µM, first compound 1 µM
[5] = second compound 0.0316 µM, first compound 3.16 µM
[6] = second compound 0.0316 µM, first compound 10 µM
[7] = second compound 0.1 µM, first compound 0.0316 µM
[8] = second compound 0.1 µM, first compound 0.1 µM
[9] = second compound 0.1 µM, first compound 0.316 µM
[10] = second compound 0.1 µM, first compound 1 µM
[11] = second compound 0.1 µM, first compound 3.16 µM
[12] = second compound 0.1 µM, first compound 10 µM
[13] = second compound 0.316 µM, first compound 0.0316 µM
[14] = second compound 0.316 µM, first compound 0.1 µM
[15] = second compound 0.316 µM, first compound 0.316 µM
[16] = second compound 0.316 µM, first compound 1 µM
[17] = second compound 0.316 µM, first compound 3.16 µM
[18] = second compound 0.316 µM, first compound 10 µM
[19] = second compound 1 µM, first compound 0.0316 µM
[20] = second compound 1 µM, first compound 0.1 µM
[21] = second compound 1 µM, first compound 0.316 µM
[22] = second compound 1 µM, first compound 1 µM
[23] = second compound 1 µM, first compound 3.16 µM
[24] = second compound 1 µM, first compound 10 µM
[25] = second compound 3.16 µM, first compound 0.0316 µM
[26] = second compound 3.16 µM, first compound 0.1 µM
[27] = second compound 3.16 µM, first compound 0.316 µM
[28] = second compound 3.16 µM, first compound 1 µM
[29] = second compound 3.16 µM, first compound 3.16 µM
[30] = second compound 3.16 µM, first compound 10 µM
[31] = second compound 10 µM, first compound 0.0316 µM
[32] = second compound 10 µM, first compound 0.1 µM
[33] = second compound 10 µM, first compound 0.316 µM
[34] = second compound 10 µM, first compound 1 µM
[35] = second compound 10 µM, first compound 3.16 µM
[36] = second compound 10 µM, first compound 10 µM
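Also: spheroids exposed to the agents for one week.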
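For viability, T/C in this document: 100% = DMSO vehicle control wells.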

Compound `O=C(Nc1ccc(O)c(NS(=O)(=O)c2ccc(F)cc2)c1)c1ccc(-c2ccccc2)cc1` + Cc1cccc(N(C)C(=O)C2C(O)CCN2c2nc(C)cc(C(F)(F)F)c2C#N)c1 has an IC50 (second compound 0.0316 µM) of over 10 µM, an IC50 (second compound 0.1 µM) of over 10 µM and an IC50 (second compound 0.316 µM) of over 10 µM. It also gave an IC50 (second compound 1 µM) of over 10 µM, an IC50 (second compound 3.16 µM) of over 10 µM and an IC50 (second compound 10 µM) of over 10 µM. For the same compound, the viability, T/C [1] was 106%, the viability, T/C [2] was 104% and the viability, T/C [3] was 99.2%. The viability, T/C [4] was 101%, the viability, T/C [5] was 104% and the viability, T/C [6] was 105%. For the same compound, the viability, T/C [7] was 104%, the viability, T/C [8] was 101% and the viability, T/C [9] was 106%. The viability, T/C [10] was 100%, the viability, T/C [11] was 104% and the viability, T/C [12] was 104%. For the same compound, the viability, T/C [13] was 98.8%, the viability, T/C [14] was 104% and the viability, T/C [15] was 97.2%. It also gave a viability, T/C [16] of 98.6%, a viability, T/C [17] of 104% and a viability, T/C [18] of 103%. It also gave a viability, T/C [19] of 99.6%, a viability, T/C [20] of 102% and a viability, T/C [21] of 101%. It also gave a viability, T/C [22] of 102%, a viability, T/C [23] of 103% and a viability, T/C [24] of 104%. The viability, T/C [25] was 101%, the viability, T/C [26] was 101% and the viability, T/C [27] was 97.5%. For the same compound, the viability, T/C [28] was 99.6%, the viability, T/C [29] was 94.8% and the viability, T/C [30] was 102%. The viability, T/C [31] was 98.1%, the viability, T/C [32] was 99.9% and the viability, T/C [33] was 102%. It also gave a viability, T/C [34] of 93.7%, a viability, T/C [35] of 94% and a viability, T/C [36] of 97%.
Compound `CCCS(=O)(=O)Nc1ccc(F)c(C(=O)c2c[nH]c3ncc(-c4ccc(Cl)cc4)cc23)c1F` + Nc1ccc(C#CCN(C(=O)Cc2ncc(C(F)(F)F)cc2C(F)(F)F)c2ccc(F)cc2)nn1 has an IC50 (second compound 0.0316 µM) of over 10 µM, an IC50 (second compound 0.1 µM) of over 10 µM and an IC50 (second compound 0.316 µM) of over 10 µM. It also gave an IC50 (second compound 1 µM) of over 10 µM, an IC50 (second compound 3.16 µM) of over 10 µM and an IC50 (second compound 10 µM) of over 10 µM. It also gave a viability, T/C [1] of 99.3%, a viability, T/C [2] of 107% and a viability, T/C [3] of 105%. For the same compound, the viability, T/C [4] was 107%, the viability, T/C [5] was 104% and the viability, T/C [6] was 98.9%. It also gave a viability, T/C [7] of 103%, a viability, T/C [8] of 108% and a viability, T/C [9] of 101%. The viability, T/C [10] was 107%, the viability, T/C [11] was 107% and the viability, T/C [12] was 104%. For the same compound, the viability, T/C [13] was 109%, the viability, T/C [14] was 106% and the viability, T/C [15] was 105%. The viability, T/C [16] was 107%, the viability, T/C [17] was 107% and the viability, T/C [18] was 93.7%. The viability, T/C [19] was 106%, the viability, T/C [20] was 104% and the viability, T/C [21] was 105%. The viability, T/C [22] was 107%, the viability, T/C [23] was 102% and the viability, T/C [24] was 98.5%. The viability, T/C [25] was 102%, the viability, T/C [26] was 103% and the viability, T/C [27] was 99.1%. It also gave a viability, T/C [28] of 101%, a viability, T/C [29] of 104% and a viability, T/C [30] of 92.4%. For the same compound, the viability, T/C [31] was 97.7%, the viability, T/C [32] was 100% and the viability, T/C [33] was 103%. The viability, T/C [34] was 98.7%, the viability, T/C [35] was 100% and the viability, T/C [36] was 94.8%.
